System: UM16 cell line
Experiment: GSEA of Bru-seq data (hallmark, KEGG, GO pathways, transcription factors)
Assay type: cell-based
Details: 4 hours
Text: Consistent with this observation, there are also massive metabolite pathways influenced including starch and sucrose metabolism, glycolysis and gluconeogenesis, purine metabolism, pyrimidine metabolism, N-glycan biosynthesis, etc.

## CCOC(=O)[C@@H]1CCCN(S(=O)(=O)c2ccc(S(=O)(=O)N(CC)CC)cc2)C1 [DX2-201, ethyl (R)-1-((4-(N,N-diethylsulfamoyl)phenyl)sulfonyl)piperidine-3-carboxylate]
5 pM
  ES KEGG_AMINOACYL_TRNA_BIOSYNTHESIS: −0.4260
  ES KEGG_DNA_REPLICATION: −0.5795
  ES KEGG_NUCLEOTIDE_EXCISION_REPAIR: −0.4603
  ES KEGG_N_GLYCAN_BIOSYNTHESIS: −0.5360
  ES KEGG_OXIDATIVE_PHOSPHORYLATION: −0.4451
  ES KEGG_PARKINSONS_DISEASE: −0.4446
  ES KEGG_PROTEASOME: −0.5628
  ES KEGG_PURINE_METABOLISM: −0.4914
  ES KEGG_PYRIMIDINE_METABOLISM: −0.4987
  ES KEGG_RNA_POLYMERASE: −0.6348
  ES KEGG_SPLICEOSOME: −0.4510
  NES KEGG_ALZHEIMERS_DISEASE: −1.6021
  NES KEGG_AMINOACYL_TRNA_BIOSYNTHESIS: −1.4417
  NES KEGG_DNA_REPLICATION: −1.9358
  NES KEGG_HUNTINGTONS_DISEASE: −1.7040
  NES KEGG_MISMATCH_REPAIR: −1.8751
  NES KEGG_NUCLEOTIDE_EXCISION_REPAIR: −1.5835
  NES KEGG_N_GLYCAN_BIOSYNTHESIS: −1.8440
  NES KEGG_OXIDATIVE_PHOSPHORYLATION: −1.7650
  NES KEGG_PARKINSONS_DISEASE: −1.7382
  NES KEGG_PROTEASOME: −1.9164
  NES KEGG_PURINE_METABOLISM: −2.0380
  NES KEGG_PYRIMIDINE_METABOLISM: −1.9279
  NES KEGG_SPLICEOSOME: −1.8728
5 μM
  ES GO_ADP_METABOLIC_PROCESS: 0.6343
  ES GO_ATP_GENERATION_FROM_ADP: 0.6848
  ES GO_GLUCOSE_CATABOLIC_PROCESS: 0.7209
  ES GO_HEXOSE_CATABOLIC_PROCESS: 0.6548
  ES GO_MONOSACCHARIDE_CATABOLIC_PROCESS: 0.5791
  ES GO_NADH_METABOLIC_PROCESS: 0.6704
  ES GO_NEGATIVE_REGULATION_OF_FAT_CELL_DIFFERENTIATION: 0.6098
  ES GO_NUCLEOTIDE_PHOSPHORYLATION: 0.5920
  ES GO_PYRUVATE_METABOLIC_PROCESS: 0.6035
  ES GO_RESPONSE_TO_OXYGEN_LEVELS: 0.4230
  ES GO_RIBONUCLEOSIDE_DIPHOSPHATE_METABOLIC_PROCESS: 0.5746
  ES HALLMARK_ALLOGRAFT_REJECTION: 0.2962
  ES HALLMARK_ANDROGEN_RESPONSE: 0.3155
  ES HALLMARK_ANGIOGENESIS: −0.5078
  ES HALLMARK_APOPTOSIS: 0.3812
  ES HALLMARK_BILE_ACID_METABOLISM: 0.3249
  ES HALLMARK_CHOLESTEROL_HOMEOSTASIS: 0.4969
  ES HALLMARK_DNA_REPAIR: −0.4085
  ES HALLMARK_E2F_TARGETS: −0.3804
  ES HALLMARK_ESTROGEN_RESPONSE_LATE: 0.3437
  ES HALLMARK_FATTY_ACID_METABOLISM: 0.2942
  ES HALLMARK_GLYCOLYSIS: 0.4109
  ES HALLMARK_HEDGEHOG_SIGNALING: 0.4848
  ES HALLMARK_HEME_METABOLISM: 0.3641
  ES HALLMARK_HYPOXIA: 0.6294
  ES HALLMARK_IL2_STAT5_SIGNALING: 0.3402
  ES HALLMARK_INFLAMMATORY_RESPONSE: 0.2995
  ES HALLMARK_KRAS_SIGNALING_DN: 0.3965
  ES HALLMARK_MITOTIC_SPINDLE: 0.3104
  ES HALLMARK_MTORC1_SIGNALING: 0.2680
  ES HALLMARK_MYC_TARGETS_V1: −0.5426
  ES HALLMARK_MYC_TARGETS_V2: −0.6265
  ES HALLMARK_MYOGENESIS: 0.3657
  ES HALLMARK_OXIDATIVE_PHOSPHORYLATION: −0.3812
  ES HALLMARK_P53_PATHWAY: 0.3403
  ES HALLMARK_TNFA_SIGNALING_VIA_NFKB: 0.3199
  ES HALLMARK_UNFOLDED_PROTEIN_RESPONSE: −0.3254
  ES HALLMARK_UV_RESPONSE_DN: 0.3784
  ES HALLMARK_XENOBIOTIC_METABOLISM: 0.2890
  ES KEGG_DORSO_VENTRAL_AXIS_FORMATION: 0.6614
  ES KEGG_GLYCOLYSIS_GLUCONEOGENESIS: 0.5362
  ES KEGG_LEISHMANIA_INFECTION: 0.5017
  ES KEGG_REGULATION_OF_AUTOPHAGY: 0.5972
  ES KEGG_RENAL_CELL_CARCINOMA: 0.4210
  ES KEGG_STARCH_AND_SUCROSE_METABOLISM: 0.7356
  ES KEGG_TYPE_II_DIABETES_MELLITUS: 0.5316
  NES GO_ADP_METABOLIC_PROCESS: 2.1062
  NES GO_ATP_GENERATION_FROM_ADP: 2.0929
  NES GO_GLUCOSE_CATABOLIC_PROCESS: 2.1191
  NES GO_HEXOSE_CATABOLIC_PROCESS: 2.1301
  NES GO_MONOSACCHARIDE_CATABOLIC_PROCESS: 1.9771
  NES GO_NADH_METABOLIC_PROCESS: 2.0814
  NES GO_NEGATIVE_REGULATION_OF_FAT_CELL_DIFFERENTIATION: 1.9052
  NES GO_NUCLEOTIDE_PHOSPHORYLATION: 2.0727
  NES GO_PYRUVATE_METABOLIC_PROCESS: 2.1281
  NES GO_RESPONSE_TO_OXYGEN_LEVELS: 1.9612
  NES GO_RIBONUCLEOSIDE_DIPHOSPHATE_METABOLIC_PROCESS: 2.0919
  NES HALLMARK_ALLOGRAFT_REJECTION: 1.2241
  NES HALLMARK_ANDROGEN_RESPONSE: 1.3002
  NES HALLMARK_ANGIOGENESIS: −1.4124
  NES HALLMARK_APOPTOSIS: 1.6931
  NES HALLMARK_BILE_ACID_METABOLISM: 1.2479
  NES HALLMARK_CHOLESTEROL_HOMEOSTASIS: 1.9354
  NES HALLMARK_DNA_REPAIR: −1.7322
  NES HALLMARK_E2F_TARGETS: −1.7010
  NES HALLMARK_ESTROGEN_RESPONSE_LATE: 1.5630
  NES HALLMARK_FATTY_ACID_METABOLISM: 1.2729
  NES HALLMARK_GLYCOLYSIS: 1.8782
  NES HALLMARK_HEDGEHOG_SIGNALING: 1.3854
  NES HALLMARK_HEME_METABOLISM: 1.6288
  NES HALLMARK_HYPOXIA: 2.8139
  NES HALLMARK_IL2_STAT5_SIGNALING: 1.5174
  NES HALLMARK_INFLAMMATORY_RESPONSE: 1.2667
  NES HALLMARK_KRAS_SIGNALING_DN: 1.4318
  NES HALLMARK_MITOTIC_SPINDLE: 1.4709
  NES HALLMARK_MTORC1_SIGNALING: 1.2451
  NES HALLMARK_MYC_TARGETS_V1: −2.4192
  NES HALLMARK_MYC_TARGETS_V2: −2.2565
  NES HALLMARK_MYOGENESIS: 1.5149
  NES HALLMARK_OXIDATIVE_PHOSPHORYLATION: −1.6882
  NES HALLMARK_P53_PATHWAY: 1.5682
  NES HALLMARK_TNFA_SIGNALING_VIA_NFKB: 1.4745
  NES HALLMARK_UNFOLDED_PROTEIN_RESPONSE: −1.3390
  NES HALLMARK_UV_RESPONSE_DN: 1.6434
  NES HALLMARK_XENOBIOTIC_METABOLISM: 1.2573
  NES KEGG_DORSO_VENTRAL_AXIS_FORMATION: 1.9145
  NES KEGG_GLYCOLYSIS_GLUCONEOGENESIS: 1.8482
  NES KEGG_LEISHMANIA_INFECTION: 1.6760
  NES KEGG_REGULATION_OF_AUTOPHAGY: 1.7250
  NES KEGG_RENAL_CELL_CARCINOMA: 1.6054
  NES KEGG_STARCH_AND_SUCROSE_METABOLISM: 2.1177
  NES KEGG_TYPE_II_DIABETES_MELLITUS: 1.6335
